Assay results taken from patent US20260201335A1, “A Method to Generate Cardiac Pericytes from Human Induced Pluripotent Stem Cells” (The Board of Trustees of the Leland Stanford Junior …, priority 2022, published 2026).

Assays:
iPSC-CPs [1] = assay: Calcium imaging using Fura-2 AM after carbachol; format: cell-based, human
From the text: (§1) FIG. 1. […] Key changes of hallmarks in each cluster are highlighted. […] GraphPad Prism 9 was used for statistical analysis. All data are presented as mean±sem.
(§2) Next, we examined the relative cell contraction capacities of iPSC-CPs versus iPSC-SMCs by measuring intracellular calcium transients after carbachol treatment. […] We also tested the pro-angiogenic potentials of iPSC-CPs.

iPSC-SMCs = assay: Calcium imaging using Fura-2 AM after carbachol; format: cell-based, human; details: iPSC-SMCs after carbachol treatment
From the text: as §1, §2

iPSC-CPs [2] = assay: PrestoBlue viability assay, sunitinib dose-response; format: cell-based, human; details: 72 hr, sunitinib 0 μM-100 μM
From the text: (§3) FIG. 1. Phenotypic characterization and functional assessment of stepwise differentiated iPSC-cardiac pericytes. A, A schematic showing stage-specific inhibition and activation of morphogens to generate pure epicardial cells (EPI) from human induced pluripotent stem cells (iPSCs). […] MPS, mid-primitive streak; LPM, lateral plate mesoderm; SM, splanchnic mesoderm; ST, septum transversum; PEO, pre-epicardial organ. B, Immunofluorescent images (ZO1 and WT1), flow cytometry (WT1) graphs (n=10 iPSC lines, 5M/5F), and quantitative data showing EPI induction efficiency by stepwise (i) and GiWiGi (ii) protocols. C, Quantitative reverse transcription PCR (RT-qPCR) results showing expression levels of canonical (WT1, TBX18, and TCF21) and mature (ALDH1A2, UPK3B, and ANXA8) markers of EPIs derived by both protocols. D, Single-cell ATAC sequencing (scATAC-seq) of EPIs generated by both GiWiGi (ii) and stepwise (iii) protocols are projected to that of human fetal heart cell clusters (i). […] H, Bright field and immunofluorescent images of iPSC-derived SMCs, cardiac fibroblasts (CFs), and endothelial cells (ECs).

CPs = details: mice, cited from earlier work
primary and iPSC-CPs = assay: Thalidomide rescue of sunitinib-induced CP death (cell morphology); format: cell-based, human; details: sunitinib (5 μM)/thalidomide (1 μM), 72 hr
From the text: as §3

iPSC-CPs [3] = assay: Gene clustering / gene ontology analysis of treated iPSC-CPs (RNA-seq); format: cell-based, human; details: sunitinib (5 μM)/thalidomide (1 μM), 72 hr
stepwise EPIs = assay: Differentiation of stepwise EPIs to iPSC-CPs with exogenous PDGF-BB (flow cytometry); format: cell-based, human; details: exogenous PDGF-BB in pericyte medium
From the text: as §1
Next, we differentiated stepwise EPIs in a commercial pericyte medium and observed that it took at least 12 days to generate iPSC-CPs (FIG. 1E) with low efficiency (FIG. 1F).
Day 11. EPI to Cardiac pericyte, CP. Aspects of the disclosure relate to producing cardiac pericytes through contacting a population of epicardial cells with a cardiac pericyte composition. As described herein, cardiac pericyte induction compositions may vary and generally comprise effective amounts of a PDGF pathway activator in a commercial pericyte medium (ScienCell cat #1201). An exemplary CP induction medium comprises 10 ng/ml PDGF-BB in pericyte medium.

## C[N+](C)(C)CCOC(N)=O [carbachol]
iPSC-CPs [1]; after carbachol treatment
  calcium amplitude, iPSC-CPs versus iPSC-SMCs: much smaller calcium amplitude
iPSC-CPs [1]; iPSC-CPs after carbachol treatment
  contraction pattern (intracellular calcium transients): stereotypical contraction pattern
iPSC-SMCs
  contraction pattern (intracellular calcium transients): stereotypical contraction pattern

## CCN(CC)CCNC(=O)c1c(C)[nH]c(/C=C2\C(=O)Nc3ccc(F)cc32)c1C [sunitinib]
iPSC-CPs [2]
  sunitinib-induced cell death, sensitivity of iPSC-CPs versus iPSC-CMs: iPSC-CPs were more sensitive than iPSC-CMs
CPs; previous study
  coronary microvascular abnormalities and cardiac dysfunction, primary target cells: CPs were the primary targets

## O=C1CCC(N2C(=O)c3ccccc3C2=O)C(=O)N1 (stereo not drawn) [thalidomide]
Primary and iPSC-CPs
  rescue of CP death: profoundly rescued CP death
iPSC-CPs [3]
  genes associated with cell cycle, pericyte function, and DNA damage: restored genes associated with cell cycle, pericyte function, and DNA damage to a baseline level
CPs
  rescue from sunitinib-induced CP loss and cardiac dysfunction: can rescue mice from sunitinib-induced CP loss and cardiac dysfunction

B1: PDGF-BB: platelet-derived growth factor ligand predominantly secreted by ECs; PDGF pathway activator (protein, UniProt P01127 82-190, looked up)
Platelet-derived growth …: SLGSLTIAEPAMIAECKTRTEVFEISRRLIDRTNANFLVWPPCVEVQRCSGCCNNRNVQCRPTQVQLRPVQVRKIEIVRKKPIFKKATVTLEDHLACKCETVAAARPVT
modifications: homodimer
Stepwise EPIs
  generation of iPSC-CPs (PDGFRβ+/CD146+/NG2+/CD13+): successfully generated pure iPSC-CPs
